# “Also recorded” adds a separate entry of the source.
# Molecular target: T1, NR0B1-SNW1 interaction (Homo sapiens, UniProt P51843)
# T1 construct: endogenous in cells; host or cells: NR0B1: H2122 cell lysate
# T1 sequence (P51843 1-470): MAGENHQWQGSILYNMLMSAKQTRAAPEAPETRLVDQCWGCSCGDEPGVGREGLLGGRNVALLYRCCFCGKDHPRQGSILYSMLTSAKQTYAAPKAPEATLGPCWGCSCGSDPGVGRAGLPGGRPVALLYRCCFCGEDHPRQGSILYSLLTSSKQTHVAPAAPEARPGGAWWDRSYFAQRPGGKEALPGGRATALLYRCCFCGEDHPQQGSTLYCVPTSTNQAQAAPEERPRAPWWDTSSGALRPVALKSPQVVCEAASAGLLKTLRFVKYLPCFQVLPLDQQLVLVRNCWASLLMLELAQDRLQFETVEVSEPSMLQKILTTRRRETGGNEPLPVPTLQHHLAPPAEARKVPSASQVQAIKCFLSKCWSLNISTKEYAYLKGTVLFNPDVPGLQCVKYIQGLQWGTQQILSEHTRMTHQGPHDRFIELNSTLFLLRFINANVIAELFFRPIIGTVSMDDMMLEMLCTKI
# Assay: In vitro binding assay: NR0B1 in H2122 lysate binding to immobilized FLAG-SNW1
# Conditions: for IC50: in vitro, read-out: IC50, inhibition of the NR0B1-SNW1 interaction
# Method: H2122 clarified cell lysate (100 μL, 1 mg ml^−1) in IP-buffer were incubated with the indicated compounds or vehicle (DMSO) for 3 hours at 4° C. with rotation. Following treatment, 3 volumes of IP-buffer was added along with immobilized FLAG-SNW1 beads (30 μL, 50:50 slurry), which was incubated for an additional hour at 4° C. Beads were washed three times with IP-buffer supplemented with 500 mM NaCl. Immunoprecipitated proteins were resolved by SDS-PAGE and analyzed by immunoblotting. NR0B1 and HA-NR0B1 levels were determined by using the NR0B1 antibody (Cell Signaling). IC50 curves were determined using Prism 6 (Graphpad) software, with maximum and minimum values set at 100% NR0B1 bound 0% NR0B1 bound respectively.
# Statistical analysis was preformed using GraphPad Prism version 6 or 7 for Mac, GraphPad Software, La Jolla Calif. USA, or the R statistical programming language. Inhibition curves of the NR0B1-SNW1 interactions by NR0B1-ligand are fit as using log(inhibitor) vs % normalized remaining of NR0B1-SNW1 interaction and data points are plotted as the mean±SD (n=2-5 per group). NR0B1 half-life was calculated from a one-phase exponential decay curve plotted as mean±SD (4-10 per group). Statistical significance was defined as p<0.05 and determined by 2-tailed Student's t-test (FIG. 1I, FIG. 3B), two-way Anova with Bonferroni post-test analysis (FIG. 1J) or correlation analysis using Pearson product-moment correlation coefficient (FIG. 4B, FIG. 10G).
# Next, a chemical probe targeting C274 of NR0B1 was developed. Using an in vitro binding assay (FIG. 5B), an ˜80-member library of cysteine-reactive electrophilic compounds was screened at 50 μM for blockade of interactions between endogenous NR0B1 and recombinant FLAG-SNW1 in cell lysates (FIG. 5C). Among the hits (>50% blockade) were a series of N-disubstituted chloroacetamides (CAs), including BPK-26 (FIGS. 5D, 5E), that were selected for further investigation. […] Both BPK-26 and BPK-29 inhibited the NR0B1-SNW1 interaction with IC50 values between 10-20 μM in vitro (FIG. 11C).
Compound,inhibition of the NR0B1-SNW1 interaction (tested concentration range of 1-50 μM),IC50 [µM],blockade of interactions between endogenous NR0B1 and recombinant FLAG-SNW1 (screened at 50 μM in cell lysates) [%],relative potency for inhibition of FLAG-SNW1 binding to NR0B1 (structure-activity relationship) (compounds at 50 μM)
"O=C(c1ccc(N2CCOCC2)cc1)N1CCC(CN(C(=O)CCl)c2cncnc2)CC1 [BPK-9, 2-chloro-N-((1-(4-morpholinobenzoyl)piperidin-4-yl)methyl)-N-(pyrimidin-5-yl)acetamide]",did not inhibit,,,
"O=C(CCl)N(Cc1cccc(Cl)c1F)c1ccc(Cl)nc1 [BPK-26, 2-chloro-N-(3-chloro-2-fluorobenzyl)-N-(6-chloropyridin-3-yl)acetamide]",,10 to 20,> 50,
"O=C(c1ccc(N2CCOCC2)cc1)N1CCCC(N(Cc2ccccc2)C(=O)CCl)CC1 (centres unmarked) [BPK-29, N-benzyl-2-chloro-N-(1-(4-morpholinobenzoyl)azepan-4-yl)acetamide]",,10 to 20,,the most potent analogue; also recorded: recovered potency
